Measurements from publication PMC4569013, “Massive Bioaccumulation and Self‐Assembly of Phenazine Compounds in Live Cells” (Advanced Science, 2015).

What was measured:
[1] = test system: MDCK epithelial cells; experiment: Linear diattenuation anisotropy microscopy (LC-PolScope) of intracellular inclusions; format: cell-based, Canine; conditions: 72 h, compared with clofazimine
Experimental: (§1) The optical design was built on a Nikon Eclipse Ti microscope equipped with the liquid crystal universal compensator consisting of a linear polarizer and a pair of liquid crystal devices. The LC compensator was part of the transillumination path and was used to illuminate the specimen with monochromatic, linearly polarized light of varying polarization orientation. There was no polarization analyzer present in the imaging path. Quantitative intensity images were recorded by a charge‐coupled device camera and a desktop computer calculated the average transmittance, the differential transmittance and the polarization orientation leading to maximum transmittance for each optically resolved picture element (pixel). Acquisition and processing steps were controlled using OpenPolScope plugins for the open source imaging programs ImageJ and Micro‐Manager (MMStudio version 1.4.15). With the combination of hardware and software, polarized light images were acquired at high sensitivity and high spatial resolution for measuring linear diattenuation.
(§2) Linear Diattenuation Microscopy Data Acquisition and Analysis: After RAW264.7 macrophages or MDCK epithelial cells were incubated with the compound in the chambered cover glasses for 72 h, at the same time of performing transmitted microscopic examination, cell specimens were examined under linear diattenuation microscopy using the Nikon Eclipse Ti microscope with 40×/0.75 NA objective and monochromatic light of two different center wavelengths, 546 and 623 nm (passband 30 nm). In the OpenPolScope software, Pol‐Acquisition and Pol‐Analyzer plugins (version 2.0) were used to capture, process, and analyze the attenuation images. Before imaging the samples, the setup was calibrated using a specially prepared slide featuring four small pieces of linear polarization filters. The transmission axes of the filters were oriented in steps of 45° providing a means to calibrate the LC universal compensator settings. After the calibration, a sample slide was inserted and first a sequence of polarized light images of a clear, fully transmitting sample area was recorded, followed by an image sequence featuring the cells under investigation. The images of the clear area were used to determine instrument factors which were needed for computing the average and the polarization dependent loss in transmittance in cellular components visible in the second image.10
(§3) Linear diattenuation is a material property that can occur in materials such as crystals, in which the light absorbing molecules are arranged with a preferred orientation. The molecular alignment creates principal axes in the material denoting polarization directions for which light is maximally and minimally transmitted. Diattenuation is the difference between maximal (T max) and minimal (T min) transmittance, divided by their sum (Equation (1)): (1) Diattenuation=Tmax‐Tmin/Tmax+Tmin
(§4) To simultaneously measure the attenuation of many crystals with arbitrary orientations, we developed algorithms based on four specimen images, each recorded using light of a different polarization orientation: 0°, 45°, 90°, and 135°.10 The four raw images were used to calculate the average and differential transmittance and the orientation of maximum transmittance in every resolved image pixel. To isolate and analyze quantitative data of the objects (crystals), the anisotropy or maximum transmittance axis orientation image file opened in ImageJ was inverted (Ctrl + Shift + I) and thresholded using ImageJ's default automatic method (“Binary” → “Convert to Mask”). By using the ImageJ's algorithm, “Analyze Particles,” data of anisotropy or maximum transmittance axis orientation of objects in images could be obtained automatically. Diattenuation ratios were calculated by dividing anisotropy at 623 nm by that at 546 nm.

[2] = test system: RAW264.7 macrophages; experiment: Cell associated mass measurements (bioaccumulation, pmole/cell); format: cell-based; conditions: 72 h incubation, normalized by number of cells
Experimental: Cell Associated Mass Measurements: […] After an overnight incubation (37 °C, 5% CO2), cells were incubated with 100 μL of the media (DMEM with 5% FBS) containing 5 × 10^−6 M clofazmine or its chemical derivatives (2.5 × 10^−6 M of Compound “I”). Media containing each compound was replaced every day during the 72 h incubation. After the incubation, media was removed and cells were washed with Hank's balanced salt solution (HBSS) buffer (No. 14025; Invitrogen) twice. RAW264.7 macrophage cells in buffer were scraped and MDCK epithelial cells were exposed to Trypsin‐EDTA solution for detachment from the plates for cell number counting and quantification of cell‐associated masses. After centrifugation (650 × g), supernatant was removed and cell pellets were resuspended in 0.1 M citric acid/0.1 M trisodium citrate buffer (pH 5) for cell counting as previously reported.7 Equal numbers of cells in 100 μL in buffer were transferred to 96 well plates and 100 μL of detergent (ATCC, 30‐1010K) was added into wells for cell lysis. Chemical absorbance from each well was measured by the UV–vis microplate reader (Synergy 2, BioTek Instruments, Winooski, VT) at 490 nm wavelength and cell‐associated mass of each compound was calculated by a standard curve generated separately using the same media and presented as pmole/cell by normalizing the amount of chemical in each cell population sample by the number of cells in each sample.

[3] = test system: RAW264.7 macrophages; experiment: Cell accumulation experiment, transmitted light microscopy of cellular staining pattern; format: cell-based; conditions: for Inferred uptake: inferred from staining pattern after 72 hour incubation; for Observed cellular staining pattern (Notes): live cells, 72 hour incubation, 5 × 10^−6 M (2.5 × 10^−6 M for I); for Cellular staining relative to clofazimine: live macrophages, 72 h; for Staining in fixed cells: methanol-fixed cells incubated 72 h with compound (control)
Experimental: Cell Accumulation Experiments and Transmitted Light Microscopic Examination: […] After a 24 h incubation (37 °C, 5% CO2), cells were incubated with solution of clofazmine or its chemical derivatives (300 μL of 5 × 10^−6 m concentration; measured cell viability ranging from 85% to 97% for all compounds tested at this concentration; Figure 1) in DMEM (no phenol red; plus 1 × 10^−3 M sodium pyruvate and 5% FBS). For Compound “I,” 2.5 × 10^−6 M of compound solution in media was used for the RAW 264.7 macrophages incubation because of lower cell viability at higher concentrations (IC50 = (3.95 ± 0.11) × 10^−6 M). A solution of clofazmine or other chemical derivatives was made by a diluting stock solutions (2.5 × 10^−3 M in DMSO; 10 × 10^−3 M stock in DMSO were stored at −80 °C for further use) into DMEM with 5% FBS. […] The extracellular concentration of each compound in each well was maintained by daily replacement of the compound‐containing media. After 72 h of incubation with clofazmine or its derivatives, compound‐containing media were removed and cells were washed twice with media. Live cells in the chambered glasses were examined under inverted transmitted light microscopy (Nikon Eclipse Ti microscope) with a 40× objective and color camera. As a control experiment, fixed cells were also microscopically examined after incubation with the compounds. Cells were seeded on the chambered cover glasses at the density of 1.5 × 10^4 cells cm^−2 (RAW264.7 macrophages) or 2.5 × 10^4 cells cm^−2 (MDCK epithelial cells). After an overnight incubation (37 °C, 5% CO2), media was removed from the wells and cold methanol (−20 °C) was added to each well. After 30 s, remaining methanol was removed by washing with media with 5% FBS. Fixed cells were incubated (37 °C, 5% CO2) with clofazmine or derivatives (300 μL of 5 × 10^−6 M; 2.5 × 10^−6 M for I) in media with 5% FBS. After 72 h, fixed RAW264.7 or MDCK cells were washed with media and examined using the same transmitted microscopy conditions as the live cells.

[4] = test system: RAW264.7 macrophages; experiment: Linear diattenuation anisotropy microscopy (LC-PolScope) of intracellular inclusions; format: cell-based; conditions: 72 h, compared with clofazimine
Experimental: as §1, §2, §3, §4

SMILES	Accumulation in macrophages [2]	Inferred uptake [3]	Diattenuation anisotropy of intracellular inclusions [1]	Observed cellular staining pattern (Notes) [3]	Cellular staining relative to clofazimine [3]	Staining in fixed cells [3]	Diattenuation anisotropy of intracellular inclusions [4]
CC(C)N=c1cc2n(-c3ccc(-c4ccccc4)cc3)c3ccccc3nc-2cc1Nc1ccc(-c2ccccc2)cc1 [C]		Slow		Very faint, brown perinuclear staining pattern observed across all cells			
CC(C)N=c1cc2n(-c3ccc(C(F)(F)F)cc3)c3ccccc3nc-2cc1Nc1ccc(C(F)(F)F)cc1 [D]		Very slow		No intracellular staining pattern observed. Small percentage of cells with orange crystals			
COc1ccc(Nc2cc3nc4ccccc4n(-c4ccc(OC)cc4)c-3cc2=NC(C)C)cc1 [A]		Slow		did not exhibit any intracellular staining pattern			
CC(C)N=c1cc2n(-c3ccc(F)cc3)c3ccccc3nc-2cc1Nc1ccc(F)cc1 [E]		Slow		Very faint, brown perinuclear staining pattern observed across all cells			
CCCCN=c1cc2n(-c3ccc(Cl)cc3)c3ccccc3nc-2cc1Nc1ccc(Cl)cc1 [K]		Slow		Very faint, brown perinuclear staining pattern			
CC(C)N=c1cc2n(-c3ccc(C#N)cc3)c3ccccc3nc-2cc1Nc1ccc(C#N)cc1 [B]		Very slow		formed large extracellular crystals. No intracellular staining pattern			
COCCN=c1cc2n(-c3ccc(Cl)cc3)c3ccccc3nc-2cc1Nc1ccc(Cl)cc1 [H]		Moderate		Brown staining associated with vesicles/membranes	comparable in morphology and intensity to those of clofazimine	Fixed cells also exhibited staining	

Second part, led by results:

Accumulation in macrophages [2]	Inferred uptake [3]	SMILES	Diattenuation anisotropy of intracellular inclusions [1]	Observed cellular staining pattern (Notes) [3]	Cellular staining relative to clofazimine [3]	Staining in fixed cells [3]	Diattenuation anisotropy of intracellular inclusions [4]
greatest accumulation	Good	CC(C)[C@H](CO)N=c1cc2n(-c3ccc(Cl)cc3)c3ccccc3nc-2cc1Nc1ccc(Cl)cc1 [W]	only in macrophages	Brown crystal-like inclusions are shown in live cells	prominent cellular staining	absent in fixed cells	even higher anisotropy
greatest accumulation	Excellent	Oc1ccc(CCN=c2cc3n(-c4ccc(Cl)cc4)c4ccccc4nc-3cc2Nc2ccc(Cl)cc2)cc1 [Q]	higher diattenuation anisotropy	Purple-black dense cytoplasmic inclusions in live cells	more prominent staining patterns	absent in fixed cells	higher diattenuation anisotropy
	Good	C[C@H](N=c1cc2n(-c3ccc(Cl)cc3)c3ccccc3nc-2cc1Nc1ccc(Cl)cc1)c1ccccc1 [R]	did not yield a measurable, diattenuation anisotropy signal	Orange-brown staining pattern associated with perinuclear cytoplasmic vesicles in live cells		No staining found in Fixed cells	did not yield a measurable, diattenuation anisotropy signal
	Moderate	Clc1ccc(Nc2cc3nc4ccccc4n(-c4ccc(Cl)cc4)c-3cc2=NCCN2CCOCC2)cc1 [N]		Faint orange staining pattern associated with perinuclear cytoplasmic vesicles		Staining not observed in fixed cells	
greatest accumulation	Good	CC(C)C(CO)N=c1cc2n(-c3ccc(Cl)cc3)c3ccccc3nc-2cc1Nc1ccc(Cl)cc1 (stereo not shown) [V]	only in macrophages	Brown crystal-like inclusions appeared in live cells	prominent cellular staining	Staining not observed in fixed cells	even higher anisotropy
	Good	NC(=O)CCN=c1cc2n(-c3ccc(Cl)cc3)c3ccccc3nc-2cc1Nc1ccc(Cl)cc1 [L]		Small brown inclusions present in live cells		absent in fixed cells	
	Good	COc1ccc2[nH]cc(CCN=c3cc4n(-c5ccc(Cl)cc5)c5ccccc5nc-4cc3Nc3ccc(Cl)cc3)c2c1 [M]		Orange-brown or purple inclusions present in live cells	comparable in morphology and intensity to those of clofazimine	Staining not observed in fixed cells	
	Good	Oc1ccc(CCN=c2cc3n(-c4ccc(Cl)cc4)c4ccccc4nc-3cc2Nc2ccc(Cl)cc2)cc1O [O]		Most of cells have shown faint orange colored vesicles		Staining not observed in fixed cells	
